According to patent US20050112573A1, “Method of detecting toxic substance” (priority 2001, published 2005):

Test system: yeast genes (level of expressed mRNA)
Test: DNA chip analysis of expressed mRNA of yeast genes after 2 h culture with a toxic chemical substance
Assay type: cell-based, Saccharomyces cerevisiae S288C
Conditions: for The level of expressed mRNA in the presence of chemical substance/ (ratio to absence of chemical substance): stress protein genes, DNA chip
Summary of the method: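 Values are treated-to-control fluorescence ratios from a whole-yeast-genome DNA chip (65° C, over 12 h hybridization) using Cy3/Cy5-labelled cDNA from mRNA. Log-phase S288C cells in YPD at 25° C were exposed 2 h to a toxicant at sublethal, growth-inhibiting concentration.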

C=CC=O [(14), acrolein]
The level of expressed mRNA in the presence of chemical substance/ in its absence, gene YDL078C (yeast gene YDL078C, ratio of DNA chip fluorescence intensity to that without chemical substance): 0.8
The level of expressed mRNA in the presence of chemical substance/ (in its absence), gene YDL215C (yeast gene YDL215C, ratio of DNA chip fluorescence intensity to that without chemical substance): 1.0
The level of expressed mRNA in the presence of chemical substance/The level of expressed mRNA in the absence of chemical substance (yeast gene YDL238C): 1.2
The level of expressed mRNA in the presence of chemical substance/The level of expressed mRNA in the absence of chemical substance (yeast gene YDR055W): 0.9
The level of expressed mRNA in the presence of chemical substance/ (in its absence), gene YDR073W (yeast gene YDR073W, ratio of DNA chip fluorescence intensity to that without chemical substance): 1.2
The level of expressed mRNA in the presence of chemical substance/ in its absence, gene YDR079W (yeast gene YDR079W, energy system protein genes, 2 h culture with the chemical, ratio to control without chemical): 1.5
The level of expressed mRNA in the presence of chemical substance/ (ratio to absence), gene YDR079W (yeast gene YDR079W, mitochondria-located protein genes, 2 h culture with chemical): 1.5
The level of expressed mRNA in the presence of chemical substance/The level of expressed mRNA in the absence of chemical substance (yeast gene YDR084C): 1.0
The level of expressed mRNA in the presence of chemical substance/The level of expressed mRNA in the absence of chemical substance (yeast gene YDR085C): 1.6
The level of expressed mRNA in the presence of chemical substance/The level of expressed mRNA in the absence of chemical substance (yeast gene YDR104C): 1.4
The level of expressed mRNA in the presence of chemical substance/The level of expressed mRNA in the absence of chemical substance (yeast gene YDR115W): 1.5
The level of expressed mRNA in the presence of chemical substance/The level of expressed mRNA in the absence of chemical substance (yeast gene YDR259C): 1.5
The level of expressed mRNA in the presence of chemical substance/ (in its absence), gene YDR297W (yeast gene YDR297W, ratio of DNA chip fluorescence intensity to that without chemical substance): 0.9
The level of expressed mRNA in the presence of chemical substance/The level of expressed mRNA in the absence of chemical substance (yeast gene YDR315C): 1.4
The level of expressed mRNA in the presence of chemical substance/The level of expressed mRNA in the absence of chemical substance (yeast gene YDR358W): 1.2
The level of expressed mRNA in the presence of chemical substance/ (ratio to absence), gene YDR377W (yeast gene YDR377W, mitochondria-located protein genes, 2 h culture with chemical): 1.4
The level of expressed mRNA in the presence of chemical substance/ (in its absence), gene YDR387C (yeast gene YDR387C, ratio of DNA chip fluorescence intensity to that without chemical substance): 0.9
The level of expressed mRNA in the presence of chemical substance/The level of expressed mRNA in the absence of chemical substance (yeast gene YDR388W): 0.6
The level of expressed mRNA in the presence of chemical substance/The level of expressed mRNA in the absence of chemical substance (yeast gene YDR432W): 0.5
The level of expressed mRNA in the presence of chemical substance/The level of expressed mRNA in the absence of chemical substance (yeast gene YDR481C): 0.9
The level of expressed mRNA in the presence of chemical substance/The level of expressed mRNA in the absence of chemical substance (yeast gene YDR510W): 1.9
The level of expressed mRNA in the presence of chemical substance/ (ratio to absence of chemical substance) (yeast gene YEL039C): 1.4
The level of expressed mRNA in the presence of chemical substance/The level of expressed mRNA in the absence of chemical substance (yeast gene YEL042W): 0.6
The level of expressed mRNA in the presence of chemical substance/The level of expressed mRNA in the absence of chemical substance (yeast gene YEL066W): 1.9
The level of expressed mRNA in the presence of chemical substance/ (in its absence), gene YER015W (yeast gene YER015W, ratio of DNA chip fluorescence intensity to that without chemical substance): 1.1
The level of expressed mRNA in the presence of chemical substance/The level of expressed mRNA in the absence of chemical substance (yeast gene YER039C): 1.2
The level of expressed mRNA in the presence of chemical substance/ (ratio to absence of chemical substance) (yeast gene YER057C): 1.4
The level of expressed mRNA in the presence of chemical substance/The level of expressed mRNA in the absence of chemical substance (yeast gene YER107C): 1.1
The level of expressed mRNA in the presence of chemical substance/The level of expressed mRNA in the absence of chemical substance (yeast gene YER130C): 0.8
The level of expressed mRNA in the presence of chemical substance/The level of expressed mRNA in the absence of chemical substance (yeast gene YFL028C): 1.6
The level of expressed mRNA in the presence of chemical substance/The level of expressed mRNA in the absence of chemical substance (yeast gene YFL043C): 1.5
The level of expressed mRNA in the presence of chemical substance/ (in its absence), gene YGL035C (yeast gene YGL035C, ratio of DNA chip fluorescence intensity to that without chemical substance): 1.1
The level of expressed mRNA in the presence of chemical substance/ (in its absence), gene YGL115W (yeast gene YGL115W, ratio of DNA chip fluorescence intensity to that without chemical substance): 1.2
The level of expressed mRNA in the presence of chemical substance/ (ratio to absence of chemical substance) (yeast gene YGL115W): 1.2
The level of expressed mRNA in the presence of chemical substance/The level of expressed mRNA in the absence of chemical substance (yeast gene YGL158W): 2.3
The level of expressed mRNA in the presence of chemical substance/ (ratio to absence), gene YGL187C (yeast gene YGL187C, mitochondria-located protein genes, 2 h culture with chemical): 0.9
The level of expressed mRNA in the presence of chemical substance/ (in its absence), gene YGL205W (yeast gene YGL205W, ratio of DNA chip fluorescence intensity to that without chemical substance): 1.0
The level of expressed mRNA in the presence of chemical substance/The level of expressed mRNA in the absence of chemical substance (yeast gene YGL229C): 1.0
The level of expressed mRNA in the presence of chemical substance/ in its absence, gene YGR062C (yeast gene YGR062C, energy system protein genes, 2 h culture with the chemical, ratio to control without chemical): 1.2
The level of expressed mRNA in the presence of chemical substance/ (ratio to absence), gene YGR062C (yeast gene YGR062C, mitochondria-located protein genes, 2 h culture with chemical): 1.2
The level of expressed mRNA in the presence of chemical substance/ (in its absence), gene YGR096W (yeast gene YGR096W, ratio of DNA chip fluorescence intensity to that without chemical substance): 1.2
The level of expressed mRNA in the presence of chemical substance/The level of expressed mRNA in the absence of chemical substance (yeast gene YGR136W): 1.1
The level of expressed mRNA in the presence of chemical substance/The level of expressed mRNA in the absence of chemical substance (yeast gene YGR189C): 0.9
The level of expressed mRNA in the presence of chemical substance/The level of expressed mRNA in the absence of chemical substance (yeast gene YGR213C): 1.0
The level of expressed mRNA in the presence of chemical substance/The level of expressed mRNA in the absence of chemical substance (yeast gene YGR257C): 0.9
The level of expressed mRNA in the presence of chemical substance/ (in its absence), gene YGR287C (yeast gene YGR287C, ratio of DNA chip fluorescence intensity to that without chemical substance): 1.1
The level of expressed mRNA in the presence of chemical substance/ (in its absence), gene YGR288W (yeast gene YGR288W, ratio of DNA chip fluorescence intensity to that without chemical substance): 1.1
The level of expressed mRNA in the presence of chemical substance/ (ratio to absence of chemical substance) (yeast gene YHL028W): 1.3
The level of expressed mRNA in the presence of chemical substance/ (ratio to absence of chemical substance) (yeast gene YHL046C): 1.4
The level of expressed mRNA in the presence of chemical substance/The level of expressed mRNA in the absence of chemical substance (yeast gene YHR004C): 0.8
The level of expressed mRNA in the presence of chemical substance/The level of expressed mRNA in the absence of chemical substance (yeast gene YHR071W): 1.6
The level of expressed mRNA in the presence of chemical substance/The level of expressed mRNA in the absence of chemical substance (yeast gene YHR139C): 2.5
The level of expressed mRNA in the presence of chemical substance/The level of expressed mRNA in the absence of chemical substance (yeast gene YHR142W): 1.2
The level of expressed mRNA in the presence of chemical substance/ (in its absence), gene YHR210C (yeast gene YHR210C, ratio of DNA chip fluorescence intensity to that without chemical substance): 1.0
The level of expressed mRNA in the presence of chemical substance/ (in its absence), gene YIL006W (yeast gene YIL006W, ratio of DNA chip fluorescence intensity to that without chemical substance): 1.0
The level of expressed mRNA in the presence of chemical substance/ (ratio to absence of chemical substance) (yeast gene YIL011W): 0.5
The level of expressed mRNA in the presence of chemical substance/The level of expressed mRNA in the absence of chemical substance (yeast gene YIL123W): 0.3
